Test results taken from ChEMBL document CHEMBL4118195, “Synthesis and profiling of benzylmorpholine 1,2,4,5-tetraoxane analogue N205: Towards tetraoxane scaffolds with potential for single dose cure of malaria” (Bioorg Med Chem, 2018).

Columns and labels:
[1] = Metabolic stability in human blood after 2 to 4 hrs by LC-MS method; type: ADME, tissue-based
[2] = Plasma concentration in Plasmodium berghei infected mouse at 30 mg/kg, po administered as single dose after 24 hrs; type: ADME, organism-based
[3] = Drug degradation in human liver microsomes assessed as compound half life at 5 uM by UPLC-MS method; type: ADME, microsome
[4] = Drug degradation in mouse liver microsomes assessed as compound half life at 1 uM by UPLC-MS method; type: ADME, microsome
[5] = Intrinsic clearance in rat liver microsomes assessed per mg protein at 1 uM by UPLC-MS analysis; type: ADME, microsome; details: read-out: CLH
[6] = Intrinsic clearance in mouse liver microsomes assessed per mg protein at 5 uM by UPLC-MS analysis; type: ADME, microsome; details: read-out: CLH
[7] = Drug metabolism in rat liver microsomes assessed as metabolite 4-(4-(morpholinomethyl)phenyl)cyclohexanol formation at 5 uM after 60 mins by UPLC-MS analysis; type: ADME, microsome; details: 1 h
[8] = Drug metabolism in rat liver microsomes assessed as metabolite M+16 (III) formation at 5 uM after 60 mins by UPLC-MS analysis; type: ADME, microsome; details: 1 h
[9] = Drug metabolism in human liver microsomes assessed as metabolite M+16 (V) formation at 5 uM after 60 mins by UPLC-MS analysis; type: ADME, microsome; details: 1 h
[10] = Drug metabolism in human liver microsomes assessed as metabolite M+32 (II) formation at 5 uM after 60 mins by UPLC-MS analysis; type: ADME, microsome; details: 1 h
[11] = Drug metabolism in rat liver microsomes assessed as metabolite M+32 (II) formation at 5 uM after 60 mins by UPLC-MS analysis; type: ADME, microsome; details: 1 h
[12] = Drug metabolism in human liver microsomes assessed as metabolite M+32 (III) formation at 5 uM after 60 mins by UPLC-MS analysis; type: ADME, microsome; details: 1 h
[13] = Drug metabolism in mouse liver microsomes assessed as metabolite M+32 (III) formation at 5 uM after 60 mins by UPLC-MS analysis; type: ADME, microsome; details: 1 h
[14] = Drug metabolism in mouse liver microsomes assessed as metabolite M+32 (V) formation at 5 uM after 60 mins by UPLC-MS analysis; type: ADME, microsome; details: 1 h
[15] = Drug metabolism in human liver microsomes at 5 uM after 60 mins by UPLC-MS analysis; type: ADME, microsome; details: read-out: Drug metabolism
[16] = Drug metabolism in rat liver microsomes at 5 uM after 60 mins by UPLC-MS analysis; type: ADME, microsome; details: read-out: Drug metabolism
[17] = Drug metabolism in human liver microsomes assessed as ring dehydrogenated metabolite formation at 5 uM after 60 mins by UPLC-MS analysis; type: ADME, microsome; details: 1 h
[18] = Drug metabolism in human liver microsomes assessed as morpholine ring opened metabolite formation at 5 uM after 60 mins by UPLC-MS analysis; type: ADME, microsome; details: 1 h
[19] = Drug metabolism in rat liver microsomes assessed as morpholine dealkylated metabolite formation at 5 uM after 60 mins by UPLC-MS analysis; type: ADME, microsome; details: 1 h
[20] = Drug metabolism in rat liver microsomes assessed as deaminated morpholine metabolite formation at 5 uM after 60 mins by UPLC-MS analysis; type: ADME, microsome; details: 1 h
[21] = Drug metabolism in rat liver microsomes assessed as cleaved morpholine ring metabolite formation at 5 uM after 60 mins by UPLC-MS analysis; type: ADME, microsome; details: 1 h
[22] = Drug metabolism in mouse liver microsomes assessed as open morpholine ring metabolite formation at 5 uM after 60 mins by UPLC-MS analysis; type: ADME, microsome; details: 1 h
[23] = Drug metabolism in human liver microsomes assessed as deaminated morpholine acid metabolite formation at 5 uM after 60 mins by UPLC-MS analysis; type: ADME, microsome; details: 1 h
[24] = Drug metabolism in mouse liver microsomes assessed as deaminated morpholine acid metabolite formation at 5 uM after 60 mins by UPLC-MS analysis; type: ADME, microsome; details: 1 h
[25] = Drug metabolism in mouse liver microsomes assessed as bis-oxygenation and dehydrogenation metabolite formation at 5 uM after 60 mins by UPLC-MS analysis; type: ADME, microsome; details: 1 h
[26] = Drug metabolism in human liver microsomes assessed as mono-oxygenation and dehydrogenation metabolite formation at 5 uM after 60 mins by UPLC-MS analysis; type: ADME, microsome; details: 1 h
[27] = Drug metabolism in rat liver microsomes assessed as mono-oxygenation and dehydrogenation metabolite formation at 5 uM after 60 mins by UPLC-MS analysis; type: ADME, microsome; details: 1 h
[28] = molecular target: Cytochrome P450 2C9 (Homo sapiens, UniProt P11712); assay: Inhibition of CYP2C9 in human liver microsomes assessed as tolbutamide methylhydroxylation after 4 to 40 mins in presence of NADPH by LCMS analysis; type: ADME
Chain of Cytochrome P450 2C9 (P11712 whole entry): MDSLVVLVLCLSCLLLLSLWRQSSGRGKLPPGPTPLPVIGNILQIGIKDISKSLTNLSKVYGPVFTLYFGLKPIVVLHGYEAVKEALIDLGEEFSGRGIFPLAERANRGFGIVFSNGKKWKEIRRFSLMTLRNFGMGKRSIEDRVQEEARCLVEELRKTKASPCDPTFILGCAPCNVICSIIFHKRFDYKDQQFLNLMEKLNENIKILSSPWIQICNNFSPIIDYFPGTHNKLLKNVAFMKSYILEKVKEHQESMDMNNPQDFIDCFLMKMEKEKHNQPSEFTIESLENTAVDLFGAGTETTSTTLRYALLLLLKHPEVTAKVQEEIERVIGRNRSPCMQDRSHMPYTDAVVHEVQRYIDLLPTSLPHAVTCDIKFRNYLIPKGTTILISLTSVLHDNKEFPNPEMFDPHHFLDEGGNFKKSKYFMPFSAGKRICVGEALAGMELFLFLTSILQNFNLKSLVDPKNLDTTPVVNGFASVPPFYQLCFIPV

[29] = molecular target: Cytochrome P450 2D6 (Homo sapiens, UniProt P10635); assay: Inhibition of CYP2D6 in human liver microsomes assessed as dextromethorphan O-demethylation after 4 to 40 mins in presence of NADPH by LCMS analysis
Chain of Cytochrome P450 2D6 (P10635 whole entry): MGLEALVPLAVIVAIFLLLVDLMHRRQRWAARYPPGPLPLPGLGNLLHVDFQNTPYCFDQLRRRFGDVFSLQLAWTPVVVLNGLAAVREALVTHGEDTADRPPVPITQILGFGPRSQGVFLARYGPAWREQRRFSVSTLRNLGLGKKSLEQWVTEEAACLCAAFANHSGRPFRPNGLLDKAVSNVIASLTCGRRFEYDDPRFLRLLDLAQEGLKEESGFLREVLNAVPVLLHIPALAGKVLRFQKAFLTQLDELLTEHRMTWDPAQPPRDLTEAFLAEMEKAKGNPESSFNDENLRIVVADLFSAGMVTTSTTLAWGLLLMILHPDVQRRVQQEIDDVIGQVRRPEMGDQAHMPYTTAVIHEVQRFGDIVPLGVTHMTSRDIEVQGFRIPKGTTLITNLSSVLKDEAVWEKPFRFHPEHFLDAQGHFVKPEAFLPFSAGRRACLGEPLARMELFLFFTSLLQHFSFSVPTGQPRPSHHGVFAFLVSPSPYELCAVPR

[30] = Cmax in humanized NOD.Cg-Prkdcscid Il2rgtm1Wjl/SzJ mouse infected with Plasmodium falciparum Pf3D70087/N9 at 100 mg/kg, po administered as single dose after 0.25 to 23 hrs by LC-MS/MS analysis; type: ADME, organism-based; design: dose 100 mg/kg, route oral; details: in vivo
[31] = system: Mus musculus; assay: Dose normalized Cmax in humanized NOD.Cg-Prkdcscid Il2rgtm1Wjl/SzJ mouse infected with Plasmodium falciparum Pf3D70087/N9 at 5 mg/kg, po administered as single dose after 0.25 to 23 hrs by LC-MS/MS analysis; type: ADME, organism-based; details: in vivo
[32] = system: Mus musculus; assay: Dose normalized Cmax in humanized NOD.Cg-Prkdcscid Il2rgtm1Wjl/SzJ mouse infected with Plasmodium falciparum Pf3D70087/N9 at 15 mg/kg, po administered as single dose after 0.25 to 23 hrs by LC-MS/MS analysis; type: ADME, organism-based; details: in vivo
[33] = system: Mus musculus; assay: Dose normalized Cmax in humanized NOD.Cg-Prkdcscid Il2rgtm1Wjl/SzJ mouse infected with Plasmodium falciparum Pf3D70087/N9 at 50 mg/kg, po administered as single dose after 0.25 to 23 hrs by LC-MS/MS analysis; type: ADME, organism-based; details: in vivo
[34] = system: Mus musculus; assay: Dose normalized Cmax in humanized NOD.Cg-Prkdcscid Il2rgtm1Wjl/SzJ mouse infected with Plasmodium falciparum Pf3D70087/N9 at 100 mg/kg, po administered as single dose after 0.25 to 23 hrs by LC-MS/MS analysis; type: ADME, organism-based; details: in vivo
[35] = Tmax in humanized NOD.Cg-Prkdcscid Il2rgtm1Wjl/SzJ mouse infected with Plasmodium falciparum Pf3D70087/N9 at 100 mg/kg, po administered as single dose by LC-MS/MS analysis; type: ADME, organism-based; details: in vivo
[36] = AUC (0 to t) in humanized NOD.Cg-Prkdcscid Il2rgtm1Wjl/SzJ mouse infected with Plasmodium falciparum Pf3D70087/N9 at 30 mg/kg, po administered as single dose by LC-MS/MS analysis; type: ADME, organism-based; details: in vivo
[37] = AUC (0 to t) in humanized NOD.Cg-Prkdcscid Il2rgtm1Wjl/SzJ mouse infected with Plasmodium falciparum Pf3D70087/N9 at 100 mg/kg, po administered as single dose by LC-MS/MS analysis; type: ADME, organism-based; details: in vivo
[38] = system: Mus musculus; assay: Dose normalized AUC (0 to t) in humanized NOD.Cg-Prkdcscid Il2rgtm1Wjl/SzJ mouse infected with Plasmodium falciparum Pf3D70087/N9 at 100 mg/kg, po administered as single dose by LC-MS/MS analysis; type: ADME, organism-based; details: in vivo
[39] = Half life in Sprague-Dawley rat at 10 mg/kg, po; type: ADME, organism-based; details: in vivo

With c1cc(C2CCC3(CC2)OOC2(OO3)C3CC4CC(C3)CC2C4)ccc1CN1CCOCC1 (centres undefined) the Stability [1] was “Stable”, the concentration at 24 h [2] was greater than 100 ng/mL and the half-life at 5 µM [3] was 43 min. It also gave a half-life at 1 µM [4] of 48 min, a microsomal CLint at 1 µM [5] of 118 µL/min/mg and a microsomal CLint at 5 µM [6] of 20 µL/min/mg. For the same compound, the Drug metabolism [7] was “Metabolite_Detected”, the Drug metabolism [8] was “Metabolite_Notdetected” and the Drug metabolism [9] was “Metabolite_Detected”. For the same compound, the Drug metabolism [10] was “Metabolite_Notdetected”, the Drug metabolism [11] was “Metabolite_Notdetected” and the Drug metabolism [12] was “Metabolite_Notdetected”. For the same compound, the Drug metabolism [13] was “Metabolite_Notdetected”, the Drug metabolism [14] was “Metabolite_Notdetected” and the metabolised at 1 h, 5 µM [15] was 63%. The metabolised at 1 h, 5 µM [16] was 82%, the Drug metabolism [17] was “Metabolite_Notdetected” and the Drug metabolism [18] was “Metabolite_Notdetected”. For the same compound, the Drug metabolism [19] was “Metabolite_Notdetected”, the Drug metabolism [20] was “Metabolite_Notdetected” and the Drug metabolism [21] was “Metabolite_Notdetected”. For the same compound, the Drug metabolism [22] was “Metabolite_Notdetected”, the Drug metabolism [23] was “Metabolite_Notdetected” and the Drug metabolism [24] was “Metabolite_Notdetected”. For the same compound, the Drug metabolism [25] was “Metabolite_Notdetected”, the Drug metabolism [26] was “Metabolite_Notdetected” and the Drug metabolism [27] was “Metabolite_Notdetected”. The IC50 [28] was greater than 20 µM, the IC50 [29] was greater than 20 µM and the Cmax [30] was 250 ng/mL. It also gave a Cmax/dose [31] of 0.0218 µg/mL/mg/kg, a Cmax/dose [32] of 0.0099 µg/mL/mg/kg and a Cmax/dose [33] of 0.0121 µg/mL/mg/kg. It also gave a Cmax/dose [34] of 0.0025 µg/mL/mg/kg, a Tmax [35] of 30 min and an AUC(0-t) [36] of 940 ng·h/mL. For the same compound, the AUC(0-t) [37] was 2320 ng·h/mL, the AUCt/dose [38] was 0.0232 µg·h/mL/mg/kg and the half-life [39] was 1020 min.
